Source: US20070122377A1, “Compositions and methods of treatment” (priority 2003, published 2007)

Columns and labels:
[1] = system: type IV PDE; conditions: cited from earlier work; for IC50: type IV PDE selective inhibitor
[2] = system: U937 cells; assay: Release of IL-10 protein from U937 monocytes in response to PGE and GMCSF (Example 3, FIG. 4); format: cell-based, human
Experimental: Cells were treated for 4 hours with the agents indicated below the graph, washed to remove the treatment and incubated for a further 20 hours before the medium was assayed for IL-10. PGE refers to prostaglandin E2, and GM refers to GMCSF.
U937 cells were grown in RPMI (PAA Laboratories) medium with 10% foetal calf serum (PAA Laboratories) added.

[3] = system: U937 cells; assay: IL-10 ELISA in U937 cells, prostaglandins in presence and absence of rolipram (Examples 5 and 6, FIGS. 7 and 8); format: cell-based, human
Experimental: U 937 cells were grown in RPP (PAA Laboratories) medium with 10% fetal calf serum added (PAA Laboratories). 2×10^6 cells per flask were treated with prostaglandin E2 at 10^−6 Molar or with Rolipram (4×10^−6) for 24 hours. Medium was removed at 20 hours and analysed by ELISA. A capture antibody (Pharmingen) was coated onto 96 well plates and culture medium was added each well. A standard curve was created with recombinant IL-10 protein. After incubation and washing, a biotin labelled monoclonal antibody (Pharmingen) was added and following incubation and washing, peroxidase labelled streptavidin was added. After washing a tetramethyl benzidine substrate was added and colour developed in proportion to IL-10 in the original sample/standard. Colour was read using a plate photometer (Labsystems, Multiskan). Mean concentrations (N=3) in controls with no lipopolysaccharide (LPS) were 38.2 pg/ml and in the presence of LPS (100 nM) they were 43.9 […].
The effect of PGE1, PGE2, 19 hydroxy PGE1 and 19 hydroxy PGE2 on the stimulation of IL-10 in the presence and absence of rolipram was investigated as described above in Example 5. IL-10 levels were measured using an ELISA assay (R&D Ltd, Oxford). Measurement was performed according to the manufacturer's instructions.

[4] = system: U937 cells; assay: phosphodiesterase IV-b mRNA in U937 cells (Example 7, FIG. 9); format: cell-based, human; conditions: four hours of incubation; PGE 1×10^-6, 19-hydroxy PGE2 5×10^-6
Experimental: After the incubation (20 hours), cells were pelleted and the mRNA was extracted with Tri-reagent (Sigma, Poole, UK). Total RNA was obtained by addition of chloroform and subsequent isopropanol precipitation. RNA was reverse transcribed with reverse transcriptase (Applied Biosystems) and random hexamers (Applied Biosystems). Probes and primers for IL-10 and IL-12 (p35) were designed using Primer Express (Applied Biosystems) and were as follows:
Template was amplified in a Taqman 7700 machine for 40 cycles using FAM/TAMRA dyes on the probe. The Applied Biosystems kit was used to amplify and detect ribosomal (18S) RNA (using VIC/TAMRA dyes) as an internal control in the same reaction tube. After 40 cycles the Ct (related to cycle number at which signal appears) for the FAM and the 18S (VIC) were recorded and […] relative quantitation was achieved using the formula 2^−ΔΔCt where Δ refers to the difference between the FAM and VIC signal related to an standard comparator included in each run.
The mRNA for phosphodiesterase IV-b was measured as described in Example 5 above. mRNA was extracted after four hours of incubation. The concentration of the PGE was 1×10^−6 and that of the 19-hydroxy PGE2 was 5×10^−6. The following primers and Taqman probe were used for quantitation of PDE IV b mRNA.

[5] = system: PDE; conditions: non-specific PDE inhibitor; cited from earlier work
[6] = system: U937 cells; assay: IL-10 and TNFα mRNA in U937 cells after differentiating agents (Example 9, FIG. 13); format: cell-based, human
Experimental: U937 (human monocyte cell line) cells were grown in RPMI (PAA Laboratories) medium with 10% fetal calf serum added (PAA Laboratories). Cells were treated with prostaglandin E2 at 10^−6 Molar, Rolipram 10^−6 Molar, Forskolin 50×10^−6 Molar with or without GMCSF at 5 ng/ml for 48 hours. Cells were pelleted and the mRNA was extracted with Tri reagent (Sigma, Poole, UK). Total RNA was obtained by addition of chloroform and subsequent isopropanol precipitation. RNA was reverse transcribed with reverse transcriptase (Applied Biosystems) and random hexamers (Applied Biosystems). Probes and primers for amplification and detection of IL-10 were designed using Primer Express (Applied Biosystems) and are as follows:
As for Example 4 but MRNA for TNFα is also included.
Data is shown as the ratio of IL-10 mRNA/TNFα mRNA. P=PMA=Phorbol myristoyl acetate; F=Fsk=Forskolin g=GMCSF, C=vehicle control.

[7] = cited from earlier work

Cn1c(=O)c2[nH]cnc2n(C)c1=O [theophylline]
times less effective than rolipram ([1]; non-selective inhibitor compared with type IV selective rolipram): 30 times

19-hydroxy PGE2
stimulation of IL-10 in the presence of GMCSF [2]: increased strikingly | stimulation of IL-10 in the presence of a PDE inhibitor [3]: increased strikingly | PDE activity / PDE message (phosphodiesterase IV-b mRNA) [4]: increase

CCCCC[C@H](O)/C=C/[C@H]1[C@H](O)CC(=O)[C@@H]1C/C=C\CCCC(=O)O [PGE, prostaglandin E2]
stimulation of IL-10 in the presence of GMCSF [2]: increased strikingly | stimulation of IL-10 in the presence of a PDE inhibitor [3]: increased strikingly | PDE activity / PDE message (phosphodiesterase IV-b mRNA) [4]: increase

COc1ccc(C2CNC(=O)C2)cc1OC1CCCC1 (stereo not shown) [rolipram, 4-[3-cyclopentyloxy-4-methoxyphenyl]-2-pyrrolidinone]
IC50 [1]: 800 nM

CC(C)Cn1c(=O)n(C)c(=O)c2[nH]cnc21 [IBMX, 3-isobutyl-1-methylxanthine]
IC50 [5]: 2 to 50 µM

CCCCCCCCCCCCCC(=O)O[C@@H]1[C@@H](C)[C@@]2(O)[C@@H](C=C(CO)C[C@]3(O)C(=O)C(C)=C[C@@H]23)[C@@H]2C(C)(C)[C@]12OC(C)=O [PMA, Phorbol myristoyl acetate]
IL-10 mRNA ([6]; PMA 2×10^-7 M as differentiating agent): increased | TNFα mRNA ([6]; differentiation with the agent): increased

CCCCOc1cc(CC2CNC(=O)N2)ccc1OC (stereo not shown) [Ro-20-1724, 4-[3-butoxy-4-methoxybenzyl]-2-imidazolidinone]
IC50 [1]: 2000 nM

B1: GM-CSF: Murine Granulocyte macrophage colony stimulating factor from Peprotech, catalog number 315-03 (protein, UniProt P01587 18-141, looked up)
Granulocyte-macrophage …: APTRSPITVTRPWKHVEAIKEALNLLDDMPVTLNEEVEVVSNEFSFKKLTCVQTRLKIFEQGLRGNFTKLKGALNMTASYYQTYCPPTPETDCETQVTTYADFIDSLKTFLTDIPFECKKPGQK
solubility in aqueous solution [7]: Freely soluble
